This test concerns the target T1, human PepT1 (SLC15A1) (Homo sapiens, UniProt P46059).
T1 construct: host or cells: MDCK-II
T1 sequence (P46059 1-708): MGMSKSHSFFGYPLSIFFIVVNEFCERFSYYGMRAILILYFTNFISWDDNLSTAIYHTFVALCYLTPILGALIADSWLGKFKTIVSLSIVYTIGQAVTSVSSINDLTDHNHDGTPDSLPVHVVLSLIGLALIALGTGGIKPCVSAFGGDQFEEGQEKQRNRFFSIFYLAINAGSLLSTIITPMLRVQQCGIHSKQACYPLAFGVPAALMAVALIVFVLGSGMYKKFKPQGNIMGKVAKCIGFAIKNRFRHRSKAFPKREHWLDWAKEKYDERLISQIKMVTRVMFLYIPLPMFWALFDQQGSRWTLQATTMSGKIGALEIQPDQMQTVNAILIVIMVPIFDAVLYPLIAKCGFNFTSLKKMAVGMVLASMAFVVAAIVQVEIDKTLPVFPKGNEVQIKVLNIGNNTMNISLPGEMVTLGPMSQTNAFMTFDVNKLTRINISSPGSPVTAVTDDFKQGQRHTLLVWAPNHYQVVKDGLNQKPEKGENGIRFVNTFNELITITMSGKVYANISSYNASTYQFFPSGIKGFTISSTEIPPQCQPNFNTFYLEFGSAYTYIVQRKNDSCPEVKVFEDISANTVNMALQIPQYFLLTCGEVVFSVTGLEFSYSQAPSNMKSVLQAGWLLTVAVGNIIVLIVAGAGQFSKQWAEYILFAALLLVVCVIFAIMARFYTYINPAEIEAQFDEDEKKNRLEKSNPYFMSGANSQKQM
In words: PepT1-mediated cellular uptake in transfected MDCK-II cells. The class given is cell-based. The settings on record: pH 5.5, 37 °C. How it is done:
Transport studies with human PepT1 (SLC15A1), LAT1 (SLC7A5) and MCT1 (SLC16A1) were conducted in MDCK-II cells expressing the human transporter or control cells expressing a vector with Green Fluorescence Protein. Cells were transfected using a proprietary, transient transfection system (OPTI-EXPRESSION Technology, BioIVT). The results from the control cells were used to correct for substrate permeation by routes other than the transporter being investigated in the study. […] Specifically, Net Transporter Mediated Substrate Uptake (pmol/min/cm^2) = (Cellular accumulation in the presence of the transporter) − (Mean cellular accumulation in the absence of the transporter). MDCK-II cells were maintained in DMEM with low glucose and 10% FBS. Cells were used at passages up to 40 were seeded at 60,000 ± 10,000 cells/well on 96-well plates approximately 24 h before transfection, and transport assays were performed approximately 48 h after transfection. […]
Transport studies with PepT1 were conducted in 96-well cell culture plate with wells containing a monolayer of MDCK-II cells grown on a permeable support and a corresponding 96-well receiver tray. […] Then a 30-µL sample was taken and mixed with 200 µL of scintillation fluid and scintillation counted (1450 Microbeta, Perkin-Elmer). […]

SMILES strings stand for the structures. “Also recorded” adds a separate entry of the source.

Turning to `CC(=O)N[C@@H](CC(C)C)C(=O)O` [N-acetyl-L-leucine], the “substrate of PepT1 (uptake)” value is given as “not transported; also recorded: not a substrate”.
